The values that follow come from PubChem BioAssay (NCI).

Several values for one entry are separate records, joined by “and”; a condition that tells them apart may be missing. Equal entries are not always repeated.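 Five compound concentrations were applied to cells in 96-well plates for 48 hours; endpoints were derived by simple linear interpolation of the resulting dose-response curve. GI50: concentration for 50% inhibition of growth. TGI marks complete inhibition of growth.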 Bounds are passed on as bounds.

What all share (assay): NCI tumour cell line growth inhibition, 48 h
The test system of assay [1] is SK-MEL-2 melanoma.
Assay [2] deals with SF-268 CNS.
The test system of assay [3] is HOP-92 NSCLC.
Assay [4] concerns IGROV1 ovarian.
For assay [5], the system named is UO-31 renal.
In assay [6] the test system is CAKI-1 renal.
Assay [7] relates to 786-0 renal.
For assay [8], the system named is HCT-15 colon.
Assay [9] has as its system SK-MEL-5 melanoma.
In assay [10] the test system is HL-60(TB) leukemia.

As for `Cc1nc2ccccc2nc1-c1ccc(N=[N+]([O-])c2ccc(-c3nc4ccccc4nc3C)cc2)cc1`, the TGI is greater than 100 µM in assay [1]; greater than 100 µM in [2]; greater than 66.1 µM in assay [3]; greater than 100 µM in assay [4]; greater than 100 µM in assay [5]; greater than 100 µM in assay [6]. Further, the TGI in [7], in [8], in assay [9] and in assay [10] was greater than 100 µM each time.
Take `COc1cc(CNCCCN2C(=O)c3ccc4c5c(ccc(c35)C2=O)C(=O)N(CCCNCc2cc(OC)c(OC)c(OC)c2)C4=O)cc(OC)c1OC`: the GI50 in [1] is 0.562 µM; in assay [2], 0.542 µM; in assay [3], 1.02 µM; in assay [4], 0.24 µM; in [5] it was 2.91 µM; in assay [6], 3.28 µM. In addition, the GI50 is 0.944 µM in assay [7], 1.18 µM in assay [8], 0.39 µM in assay [9] and 0.919 µM in assay [10]. For the same compound, the TGI in assay [1] came out at 1.52 µM; in assay [2], 2.27 µM; in assay [3] it was 2.49 µM; in assay [4], 1.06 µM; in assay [5] it was 9.48 µM; in [6], 9.64 µM. The TGI in assay [7] is 2.39 µM; in assay [8] it was 3.55 µM; in [9], 1.03 µM; in assay [10], 1.97 µM.
Take `COc1cccc(/C=N/[N-]C(=O)c2ccncc2)c1[O-].[Cu+2].[OH3+]`: the GI50 was greater than 100 µM in assay [1]; 28 µM in assay [2]; greater than 100 µM in assay [3]; 38.7 µM in [4]; 45.5 µM in [5]; greater than 100 µM in [6]. Further, the GI50 in assay [7] is 63.4 µM; in assay [8] it was 62.8 µM; in assay [9] it was 74.3 µM; in assay [10] it was 23 µM. For the same compound, the TGI in assay [1], in [2], in assay [3], in assay [4], in [5] and in [6] was greater than 100 µM in each case. Besides, the TGI in assay [7] was greater than 100 µM; in assay [8], greater than 100 µM; in [9], greater than 100 µM; in assay [10] it was 53.7 µM.
In the case of `Cc1ccc(/C=C/c2c(C(=O)/C=C/c3ccc(C(F)(F)F)cc3)c(C)nc3ccccc23)cc1`, the GI50 in assay [1] was 1.83 µM; in [2], 1.57 µM; in assay [3], 1.43 µM; in assay [4], 0.6 µM; in assay [5], 1.01 µM; in assay [6] it was 1.11 µM. Also, the GI50 in [7] was 1.7 µM; in assay [8], 0.89 µM; in assay [9], 1.54 µM; in [10] it was 1.25 µM. In addition, the TGI amounted to 3.92 µM in assay [1]; 3.09 µM in assay [2]; 2.98 µM in [3]; 2.02 µM in assay [4]; 2.17 µM in [5]; 2.32 µM in assay [6]. Further, the TGI in [7] stood at 3.18 µM; in [8] it was 3.49 µM; in assay [9] it was 2.87 µM; in [10], 3.66 µM.
As to `COC1C(O)=C2C(=O)O/C(C)=C/C=C/C=C/C=C\CC(c3ccccc3)NC(=O)\C=C/C=C\C=C\C=C\[C@@]2(C)[C@@H]1O` (some centres undefined), the TGI is 0.15 µM in assay [1]; 0.318 µM in assay [2]; less than 0.0199 µM in assay [3]; 0.287 µM in [4]; 0.0607 µM in assay [5]; 0.0582 µM in [6]. Also, the TGI was 0.148 µM in assay [7], 0.0834 µM in assay [8], 0.199 µM in assay [9] and 0.0421 µM in [10].
In the case of `COc1c(OC)c(OC)c(C(=O)/C=C/c2ccccc2)c(OC)c1OC`, the TGI amounted to 45 µM in assay [1]; 22.1 µM in assay [2]; 17.9 µM in assay [3]; 27.9 µM in assay [4]; 22.2 µM in assay [5]; 28.4 µM in assay [6]. Moreover, the TGI is 21.6 µM in assay [7], 23 µM in assay [8], 26.3 µM in assay [9] and 38.2 µM in assay [10].
Consider `O=C(CC(O)(C(F)(F)F)C(F)(F)F)c1cc(CC(=O)C(O)(C(F)(F)F)C(F)(F)F)cc(CC(=O)C(O)(C(F)(F)F)C(F)(F)F)c1`, for which the TGI in [1] is 3.71 µM; in assay [2], greater than 10 µM; in [3], 3.35 µM; in assay [4], 4.15 µM; in [5], 3.84 µM; in [6], 5.34 µM. For the same compound, the TGI in assay [7] is 4.53 µM; in assay [8], greater than 8.79 µM; in assay [9] it was 3.04 µM; in [10] it was greater than 10 µM.
For `N=c1ccn2c(n1)OC1C(O)C(CO)OC12` (centres undefined), the GI50 in assay [1] is greater than 100 µM; in assay [2], 2.41 µM; in assay [3] it was 8.2 µM and 19.9 µM; in assay [4] it was 4.02 µM; in [5], 3.08 µM and 0.355 µM; in assay [6], 0.394 µM. Moreover, the GI50 was 0.652 µM in assay [7], 10.4 µM in assay [9] and 0.763 µM in assay [10]. Further, the TGI is greater than 1000 µM in [1]; greater than 619 µM in [2]; greater than 811 µM in [3]; greater than 1000 µM in assay [4]; greater than 1000 µM in [5]; 260 µM and > 100 µM in assay [6]. Also, the TGI in assay [7] is greater than 1000 µM; in assay [8] it was greater than 1000 µM; in assay [9] it was greater than 1000 µM; in assay [10], 69.7 µM and > 23.6 µM.
Take `O=C(NCCCCN=c1cccccc1NCCCCNC(=O)OCc1ccccc1)OCc1ccccc1`: the TGI in assay [1] came to 36.9 µM; in [2], 63.8 µM; in [3] it was 20.1 µM; in [4], 54.1 µM; in assay [5], 21.4 µM; in assay [6], 37.9 µM. Moreover, the TGI was determined as 31.8 µM in assay [7], 23.2 µM in [8], 33.1 µM in assay [9] and 31.3 µM in assay [10].
